Results: PMC4240342 (Bioconjugate Chemistry, 2014)

Tested on: human osteosarcoma Saos-2 cells
Test: Cytotoxicity, CCK-8 bioassay
Type: cell-based
Conditions: read-out: IC50, cytotoxicity, 72 h incubation, CCK-8, concentrations as hydrazone-bound DOX content, mean ± SEM of three experiments

COc1cccc2c1C(=O)c1c(O)c3c(c(O)c1C2=O)C[C@@](O)(C(=O)CO)C[C@@H]3O[C@H]1C[C@H](N)[C@H](O)[C@H](C)O1 [Free DOX, Doxorubicin]
IC50: 77 ± 9 nM
